Values quoted from earlier work in patent publication US20160129117A1, “Novel Boronic Acid Compound Preparation” (NIPPON KAYAKU KABUSHIKI KAISHA, priority 2013, published 2016).
Read-outs that look alike come from different tables or passages of the source.

Columns and labels:
[1] = in vivo

## CC(C)C[C@H](NC(=O)[C@H](Cc1ccccc1)NC(=O)c1cnccn1)B(O)O [bortezomib]
Intravenous administration
  incidence of grade 3 peripheral neuropathy: 16%
Subcutaneous administration
  incidence of grade 3 peripheral neuropathy: 6%
[1]
  total dose causing the peripheral nerve toxicity: about 30 mg/m^2
